According to ChEMBL document CHEMBL1129342, “Structure-based design of novel HIV protease inhibitors: sulfonamide-containing 4-hydroxycoumarins and 4-hydroxy-2-pyrones as potent non-peptidic inhibitors” (J Med Chem, 1996):
pKi: −log10 of the molar value.

What was measured:
[1] = target: Human immunodeficiency virus type 1 protease (Human immunodeficiency virus 1) (UniProt Q72874)
[2] = target: T1, Human immunodeficiency virus type 1 protease (Human immunodeficiency virus 1, UniProt Q72874); assay: Binding affinity against HIV-1 protease.
[3] = target: T1, Human immunodeficiency virus type 1 protease; assay: Binding affinity towards HIV protease

Row | pKi [3] | SMILES | IC90 [1] [nM] | pKi [2]
1 |  | CCC(Cc1ccccc1)c1cc(O)c(C(c2cccc(NS(=O)(=O)c3cn(C)cn3)c2)C2CC2)c(=O)o1 (mixture of isomers) [listing 1 of 2 here] | 4100 | 
2 |  | CCC(Cc1ccccc1)c1cc(O)c(C(c2cccc(NS(=O)(=O)c3cn(C)cn3)c2)C2CC2)c(=O)o1 (single isomer, unassigned; diastereomer 2) [listing 1 of 2 here] |  | 9.14
3 |  | CCC(Cc1ccccc1)c1cc(O)c(C(c2cccc(NS(=O)(=O)c3ccc(C#N)cc3)c2)C2CC2)c(=O)o1 (stereo not given) | 9900 | 8.24
4 |  | COc1ccc2c(O)c(C(c3cccc(NS(=O)(=O)c4cccc5cccnc45)c3)C3CC3)c(=O)oc2c1 (stereo not given) |  | 8.31
5 | 9.00 | COc1c(C(O)c2ccccc2)c(=O)oc2ccccc12 (stereo not given) |  | 
6 | 6.96 | CCC(c1cccc(NC(=O)CCNC2C=Cc3ccccc32)c1)c1c(O)oc2ccccc2c1=O (stereo not given) |  | 
7 |  | Cn1cnc(S(=O)(=O)Nc2cccc(C(c3c(O)cc(C(CC4CC4)CC4CC4)oc3=O)C3CC3)c2)c1 (single isomer, unassigned; enantiomer 1) | 10400 | 
8 |  | Cc1cc(O)c(C(c2cccc(NS(=O)(=O)c3cn(C)cn3)c2)C2CC2)c(=O)o1 (stereo not given) |  | 7.85
9 |  | CCC(Cc1ccccc1)c1cc(O)c(C(c2cccc(NS(=O)(=O)c3cn(C)cn3)c2)C2CC2)c(=O)o1 (single isomer, unassigned; diastereomer 4) [listing 1 of 2 here] | 6000 | 
10 |  | CCC(Cc1ccccc1)c1cc(O)c(C(c2cccc(NS(=O)(=O)c3cn(C)cn3)c2)C2CC2)c(=O)o1 (single isomer, unassigned; diastereomer 3) [listing 1 of 2 here] |  | 8.72
11 |  | CCCS(=O)(=O)Nc1cccc(C(c2c(O)cc(C(CC)Cc3ccccc3)oc2=O)C2CC2)c1 (stereo not given) | 11100 | 7.40
12 |  | COCCOCCC(CCOCCOC)c1cc(O)c(C(c2cccc(NS(=O)(=O)c3cn(C)cn3)c2)C2CC2)c(=O)o1 (stereo not given) |  | 8.38
13 |  | O=c1cc(C(CC2CC2)CC2CC2)oc(O)c1C(c1cccc(NS(=O)(=O)c2cccc3cccnc23)c1)C1CC1 (stereo not given) | 6500 | 8.28
14 |  | CCC(Cc1ccccc1)c1cc(O)c(C(c2cccc(NS(=O)(=O)c3cn(C)cn3)c2)C2CC2)c(=O)o1 (mixture of isomers) [listing 2 of 2 here] |  | 8.89
15 |  | O=c1cc(C(CC2CC2)CC2CC2)oc(O)c1C(c1cccc(NS(=O)(=O)c2ccc(F)cc2)c1)C1CC1 (stereo not given) | 8000 | 7.80
16 |  | CCC(CC)c1cc(O)c(C(c2cccc(NS(=O)(=O)c3cn(C)cn3)c2)C2CC2)c(=O)o1 (stereo not given) |  | 9.27
17 | 7.36 | CCC(Cc1ccccc1)c1cc(O)c(C(c2cccc(NC(=O)Cc3cccnc3)c2)C2CC2)c(=O)o1 (stereo not given) |  | 
18 |  | CCC(Cc1ccccc1)c1cc(O)c(C(c2cccc(NS(=O)(=O)c3ccc(Cl)cc3)c2)C2CC2)c(=O)o1 (stereo not given) | 6200 | 7.82
19 |  | COc1ccc2c(O)c(C(c3cccc(NS(=O)(=O)c4cn(C)cn4)c3)C3CC3)c(=O)oc2c1 (stereo not given) |  | 9.15
20 | 8.40 | CCC(Cc1ccccc1)c1cc(O)c(C(c2cccc(NC(=O)C(Cc3c[nH]cn3)NC(=O)OC(C)(C)C)c2)C2CC2)c(=O)o1 (stereo not given) |  | 

Row | pKi [3] | SMILES | IC90 [1] [nM] | pKi [2]
21 |  | Cn1cnc(S(=O)(=O)Nc2cccc(C(c3c(O)cc(CCc4ccccc4)oc3=O)C3CC3)c2)c1 (stereo not given) |  | 9.01
22 |  | CCC(Cc1ccccc1)c1cc(O)c(C(c2cccc(NS(=O)(=O)c3cn(C)cn3)c2)C2CC2)c(=O)o1 (single isomer, unassigned; diastereomer 4) [listing 2 of 2 here] |  | 8.85
23 |  | COc1ccc2c(O)c(C(c3cccc(NS(=O)(=O)c4ccc(C#N)cc4)c3)C3CC3)c(=O)oc2c1 (stereo not given) |  | 8.24
24 |  | CCC(Cc1ccccc1)c1cc(O)c(C(c2cccc(NS(=O)(=O)c3cn(C)cn3)c2)C2CC2)c(=O)o1 (single isomer, unassigned; diastereomer 1) [listing 1 of 2 here] |  | 9.28
25 |  | CCC(CCOCCOC)c1cc(O)c(C(c2cccc(NS(=O)(=O)c3cn(C)cn3)c2)C2CC2)c(=O)o1 (stereo not given) |  | 9.06
26 |  | CCC(Cc1ccccc1)c1cc(O)c(C(c2cccc(NS(=O)(=O)c3cn(C)cn3)c2)C2CC2)c(=O)o1 (single isomer, unassigned; diastereomer 3) [listing 2 of 2 here] | 6800 | 
27 |  | Cn1cnc(S(=O)(=O)Nc2cccc(C(c3c(O)cc(C(CC4CC4)CC4CC4)oc3=O)C3CC3)c2)c1 (racemic) | 4600 | 
28 |  | CCC(Cc1ccccc1)c1cc(O)c(C(c2cccc(NS(=O)(=O)c3cn(C)cn3)c2)C2CC2)c(=O)o1 (single isomer, unassigned; diastereomer 2) [listing 2 of 2 here] | 5700 | 
29 |  | CCC(Cc1ccccc1)c1cc(O)c(C(c2cccc(NS(=O)(=O)c3ccccc3)c2)C2CC2)c(=O)o1 (stereo not given) | 7600 | 7.77
30 |  | CCC(CC1CCOCC1)c1cc(O)c(C(c2cccc(NS(=O)(=O)c3cn(C)cn3)c2)C2CC2)c(=O)o1 (stereo not given) |  | 9.32
31 |  | COCCOCCCc1cc(O)c(C(c2cccc(NS(=O)(=O)c3cn(C)cn3)c2)C2CC2)c(=O)o1 (stereo not given) |  | 8.80
32 |  | O=c1cc(C(CC2CC2)CC2CC2)oc(O)c1C(c1cccc(NS(=O)(=O)c2ccccc2)c1)C1CC1 (stereo not given) | 12100 | 7.64
33 |  | CCC(Cc1ccccc1)c1cc(O)c(C(c2cccc(NS(=O)(=O)c3cccc4cccnc34)c2)C2CC2)c(=O)o1 (stereo not given) | 6000 | 8.46
34 |  | CCC(Cc1ccccc1)c1cc(O)c(C(c2cccc(NS(=O)(=O)c3cccnc3)c2)C2CC2)c(=O)o1 (stereo not given) | 28700 | 7.92
35 |  | N#Cc1ccc(S(=O)(=O)Nc2cccc(C(c3c(O)oc(C(CC4CC4)CC4CC4)cc3=O)C3CC3)c2)cc1 (stereo not given) | 8900 | 8.27
36 |  | CCC(Cc1ccccc1)c1cc(O)c(C(c2cccc(NS(=O)(=O)c3cn(C)cn3)c2)C2CC2)c(=O)o1 (single isomer, unassigned; diastereomer 1) [listing 2 of 2 here] | 4500 | 
37 |  | CCC(Cc1ccccc1)c1cc(O)c(C(c2cccc(NS(=O)(=O)c3ccc(OC)cc3)c2)C2CC2)c(=O)o1 (stereo not given) | 7600 | 7.66
38 |  | COc1ccc2c(O)c(C(c3cccc(NS(=O)(=O)c4ccc(F)cc4)c3)C3CC3)c(=O)oc2c1 (stereo not given) |  | 8.11
39 |  | Cn1cnc(S(=O)(=O)Nc2cccc(C(c3c(O)cc(C(CC4CC4)CC4CC4)oc3=O)C3CC3)c2)c1 (single isomer, unassigned; enantiomer 2) | 6900 | 
